Test system: prostate cancer cells (parental PPT2, primary tumor-derived)
Assay: Cytotoxic drug treatment of parental primary prostate cancer cells under stemness-promoting culture
Assay type: cell-based, human
Details: 0.1-3 μM concentrations; FIG. 1C
Text: Initially, the isolated fast adherent cells represented a mixture of a majority of tumor-associated fibrocytes with a minor population of large cancer cells (FIG. 1A).

Row | SMILES | enrichment of multinucleated gigantic cells (highly drug resistant type of CSCs)
1 | CC(=O)O[C@@]12CO[C@@H]1C[C@H](O)[C@@]1(C)C(=O)[C@H](OC(=O)C3CC3)C3=C(C)[C@@H](OC(=O)[C@H](O)[C@H](C=C(C)C)NC(=O)OC(C)(C)C)C[C@@](O)([C@@H](OC(=O)c4ccccc4)[C@H]21)C3(C)C [SBT-1214] | significant enrichment and visualization of the multinucleated gigantic cells
2 | CC(=O)O[C@H]1C(=O)[C@@]2(C)[C@H]([C@H](OC(=O)c3ccccc3)[C@]3(O)C[C@H](OC(=O)[C@H](O)[C@@H](NC(=O)c4ccccc4)c4ccccc4)C(C)=C1C3(C)C)[C@]1(OC(C)=O)CO[C@@H]1C[C@@H]2O [Taxol] | significant enrichment and visualization of the multinucleated gigantic cells
